{"source": "patent US20250215071A1", "about": "“Novel Mcl-1 inhibitor and combination of Mcl-1 and a BH3 mimetic, such as a Bcl-2 inhibitor” (NETRIS PHARMA, priority 2022, published 2025)", "key": {"HCC70": {"test_system": "HCC70", "test": "Propidium iodide incorporation (Incucyte Zoom) in HCC70 cells with netrin-1 silencing", "type": "cell-based", "settings": "up to 24 hours", "method": "FIG. 10. Cell death assessment by combining netrin-1 silencing and Navitoclax. To assess cell death, Propidium iodide (PI) incorporation, normalized to cell confluence, was followed in real-time up to 24 hours by Incucyte Zoom technology for scramble (siCTRL), netrin-1 (siNet), scramble (siCTRL) and Navitoclax, netrin-1 (siNet) and Navitoclax.\nIn addition, breast cancer HCC70 were transfected with scramble (siCTRL) or netrin-1 (siNet) targeting siRNAs. 24 hours after transfection, cells were detached, plated again in 24-well plate and treated with 0.5 µM of the Bcl-2/Bcl-XL/Bcl-w inhibitor Navitoclax (Tse et al, Cancer Res, 2008; Shoemaker et al, Clin Cancer Res, 2008). To assess cell death, propidium iodide (PI) incorporation, normalized to cell confluence, was followed in real-time up to 24 hours by Incucyte Zoom technology."}, "[1]": {"settings": "cited from earlier work"}, "caspase-9": {"test_system": "caspase-9", "test": "UNC5B-induced caspase-9 activity in HeLa UNC5B cells", "type": "cell-based, Human", "settings": "Dox; 18 hours", "method": "FIG. 5. UNC5B-mediated Mcl-1 degradation induces MOMP and caspase-9 activation. (A): UNC5B over-expression triggers Mitochondrial Outer Membrane Permeabilization (MOMP) in a COMMD2/CRL3 complex-dependent manner. Hela cells were transfected with scramble (siCTRL), COMMD2 (siCOMMD2-1) or RBX1 (siRBX1-1) siRNAs. 24 hours after transfection, cells were treated with Dox and after further 18 hours mitochondrial depolarization quantified by 5′,6,6′-tetrachloro-1,1′,3,3′-tetraethylbenzimi-dazolylcarbocyanine iodide (JC-1) dye staining, using NucleoCounter NC3000 (n=3, **** p<0.0001, ordinary two-way ANOVA with Tukey's multiple comparisons test). Values are given as means±SEM. (B,C,D): Apoptotic cell death induced by UNC5B over-expression requires caspase-9. HeLa UNC5B cells were transfected with scramble (siCTRL) or caspase-9 (siCASP9) siRNAs and 24 hours later treated with the indicated concentrations of Dox. Propidium iodide (PI)-positive cells were assessed in real-time up to 48 hours using Incucyte Zoom instrument (C) (n=[…], Kolmogorov-Smirnov test). DNA fragmentation was assessed by FACS analysis (D) and caspase-3 was measured using caspase-3 fluorometric kit (E), both 18 hours after treatment (n=[…], **** p<0.0001, ordinary two-way ANOVA with Šidák's multiple comparisons test). Values are given as means±SEM. […] HeLa UNC5B cells were treated with Dox and 18 hours later caspase-9 and -8 activities were assessed by fluorometric kit, using specific substrates (n=3, ^nsp>0.05, *p<0.05, Mann-Whitney test, one-tailed). […] 24 hours later, cells were treated with Dox and caspase-9 activity was measured by fluorometric kit (n=3, **** p<0.0001, ordinary two-way ANOVA with Tukey's multiple comparisons test). […] 18 hours after treatment, caspase-9 activity was assessed with the fluorometric kit (n=5, *p<0.05, ** p<0.01, *** p<0.001, **** p<0.0001, ordinary two-way ANOVA with Tukey's multiple comparisons test). […] Cells were then treated with Dox and Mcl-1 protein was evaluated by western blot. […]"}, "UNC5B-induced cell death": {"test_system": "UNC5B-induced cell death", "test": "UNC5B-induced cell death under inhibition of neddylation", "type": "cell-based"}}}
{"smiles": "CC1(C)CCC(c2ccc(Cl)cc2)=C(CN2CCN(c3ccc(C(=O)NS(=O)(=O)c4ccc(N[C@H](CCN5CCOCC5)CSc5ccccc5)c(S(=O)(=O)C(F)(F)F)c4)cc3)CC2)C1", "note": "[Navitoclax]", "values": [{"measurement": "cell death induction (PI incorporation)", "setting": "HCC70; 0.5 µM alone (siCTRL)", "result": "slight effect on cell death induction"}, {"measurement": "cell death induction (PI incorporation)", "setting": "HCC70; 0.5 µM combined with netrin-1 silencing (siNet)", "result": "quickly and strongly triggered apoptosis"}]}
{"smiles": "Cc1c(-c2c(-c3ccc(F)o3)sc3ncnc(O[C@H](Cc4ccccc4OCc4ccnn4CC(F)(F)F)C(=O)O)c23)ccc(OCCN2CCN(C)CC2)c1Cl", "note": "[S63845]", "values": [{"measurement": "tolerability", "setting": "[1]; Brennan et al., 2018", "result": "overall good tolerability"}, {"measurement": "B-cell population", "setting": "[1]; during treatment (Brennan et al., 2018)", "result": "decrease in the B-cell population"}]}
{"smiles": "NS(=O)(=O)OC[C@@H]1C[C@@H](n2ccc3c(N[C@H]4CCc5ccccc54)ncnc32)C[C@@H]1O", "note": "[pevonedistat]", "values": [{"measurement": "UNC5B-induced caspase-9 activation", "setting": "caspase-9", "result": "sufficient to prevent UNC5B-induced caspase-9 activation"}, {"measurement": "UNC5B-induced cell death", "setting": "UNC5B-induced cell death", "result": "prevented UNC5B-induced cell death"}]}
